SMILES strings stand for the structures.

Here are results for one compound from patent US20240368115A1, “REGULATOR CONTAINING TRICYCLIC DERIVATIVE, PREPARATION METHOD THEREFOR AND APPLICATION THEREOF” (SHUJING BIOPHARMA CO., LTD, priority 2021, published 2024).

The target of one data set is T1, D2L receptor (Homo sapiens, UniProt P14416).
T1 construct: expressed in transfected cells
Put plainly: D2L receptor cAMP agonist test. Particulars: HEK293 cell strain stably expressing D2L receptor. The format is cell-based.

Another data set concerns the target 5-HT2A receptor (Homo sapiens, UniProt P28223). Kind of data set: Calcium flux test for 5-HT2A receptor. The format is cell-based. To be noted: CHO cell strain stably expressing 5-HT2A receptor. On the technique in general: Calcium assays in cells follow changes in intracellular calcium, usually with a dye or a luminescent sensor.
Another data set concerns the target T2, 5-HT1A receptor (Homo sapiens, UniProt P08908).
T2 construct: expressed in transfected cells
T2 sequence (P08908 1-422): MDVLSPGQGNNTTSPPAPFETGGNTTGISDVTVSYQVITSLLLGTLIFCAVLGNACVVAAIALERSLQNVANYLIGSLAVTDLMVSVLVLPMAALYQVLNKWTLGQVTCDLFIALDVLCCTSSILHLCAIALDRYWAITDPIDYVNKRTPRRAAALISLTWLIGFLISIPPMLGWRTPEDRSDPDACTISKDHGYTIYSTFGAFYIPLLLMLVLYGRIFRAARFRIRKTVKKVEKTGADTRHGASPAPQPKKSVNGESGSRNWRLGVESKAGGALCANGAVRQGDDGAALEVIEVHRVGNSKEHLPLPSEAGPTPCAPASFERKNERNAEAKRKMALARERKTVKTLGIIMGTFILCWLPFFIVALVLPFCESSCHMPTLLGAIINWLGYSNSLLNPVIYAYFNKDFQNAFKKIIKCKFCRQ
Put plainly: 5-HT1A receptor cAMP agonist test. The format is cell-based. To be noted: HEK293 cell strain stably expressing 5-HT1A receptor.

In the next data set the target is T3, D2S receptor (Homo sapiens, UniProt P14416).
T3 construct: expressed in transfected cells
Kind of data set: D2S receptor cAMP agonist test. The format is cell-based. To be noted: HEK293 cell strain stably expressing D2S receptor.

The nature of data set [1]: Pharmacokinetic test in mice. The data set is classed as in vivo. Particulars: male ICR mice, oral intragastric, single dose 5 mg/kg, plasma; 5 mg/kg. How it is done:
Male ICR mice were administered orally intragastrically, the plasma concentrations of the compounds of the present invention were measured in the mice, the PK parameters were calculated, and the pharmacokinetic evaluation was performed on the compounds of the present invention.
• (1) Test samples: the compounds of the examples of the present invention, self-made. • (2) Test animals: ICR mice, SPF grade, male, Xuzhou Medical University. • (3) Main test instruments:
Drug preparation: according to the weight of the weighed drug, the preparation volume was calculated. 5% of DMSO was added firstly. After the drug was fully dissolved, 95% of 20% aqueous PB-cyclodextrin solution was then added, and the mixture was mixed well for later use.
Administration route: oral intragastric administration. Frequency and duration of administration: single administration.
ICR mice were stratified according to body weight and then randomly divided into groups of 9 mice each, and the mice were fasted overnight prior to the test. The mice were separately administered orally intragastrically. 50 μL of blood was collected from the fundus vein of the mouse at 0 h, 0.083 h, 0.25 h, 0.5 h, 1 h, 2 h, 4 h, 8 h, 12 h, and 24 h (3 time points for each mouse) to a sample tube containing heparin sodium as an anticoagulant, and the tube was placed in wet ice and centrifuged at 4000 r·min^−1 for 10 min. The plasma was separated, and cryopreserved in a refrigerator at −80° C. for testing.
The concentrations of plasma samples were measured by high performance liquid chromatography-tandem mass spectrometry (LC-MS/MS). The retention times of the compounds and internal standard, chromatogram acquisitions, and integrals of chromatograms were processed using the software Analyst (AB SCIEX), and the data statistics were processed using the software Watson LIMS (Thermo Fisher Scientific) or Analyst (AB SCIEX). The concentration of plasma was processed using a non-compartmental model of the pharmacokinetic software WinNonlin™ Version 6.3 (Pharsight, Mountain View, CA), and pharmacokinetic parameters were calculated by a linear log-trapezoidal method.

T3 sequence (P14416 1-414 isoform P14416-2): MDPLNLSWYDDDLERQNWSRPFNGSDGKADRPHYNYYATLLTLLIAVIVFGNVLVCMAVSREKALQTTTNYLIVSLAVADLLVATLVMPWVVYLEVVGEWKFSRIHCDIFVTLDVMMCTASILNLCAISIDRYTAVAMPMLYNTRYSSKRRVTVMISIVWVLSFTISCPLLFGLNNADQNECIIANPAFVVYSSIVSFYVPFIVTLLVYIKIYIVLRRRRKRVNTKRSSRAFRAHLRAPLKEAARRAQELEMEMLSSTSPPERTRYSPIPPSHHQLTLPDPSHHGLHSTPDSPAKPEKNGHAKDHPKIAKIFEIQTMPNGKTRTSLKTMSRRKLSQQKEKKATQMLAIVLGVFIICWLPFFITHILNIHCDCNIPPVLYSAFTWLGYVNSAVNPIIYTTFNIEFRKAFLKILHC
T1 sequence (P14416 whole entry): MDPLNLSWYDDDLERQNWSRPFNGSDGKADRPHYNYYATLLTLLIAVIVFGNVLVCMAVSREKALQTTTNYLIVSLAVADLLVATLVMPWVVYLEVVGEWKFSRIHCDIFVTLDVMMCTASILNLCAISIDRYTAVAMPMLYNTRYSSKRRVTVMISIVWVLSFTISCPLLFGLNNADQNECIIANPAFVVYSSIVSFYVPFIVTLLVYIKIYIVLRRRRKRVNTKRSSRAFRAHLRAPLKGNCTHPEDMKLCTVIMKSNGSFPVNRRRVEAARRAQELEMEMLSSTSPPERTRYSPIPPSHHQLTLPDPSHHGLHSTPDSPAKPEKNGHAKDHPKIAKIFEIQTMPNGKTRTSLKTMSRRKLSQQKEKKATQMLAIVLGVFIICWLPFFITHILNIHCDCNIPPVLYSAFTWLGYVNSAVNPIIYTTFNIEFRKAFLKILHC
Sequence of 5-HT2A receptor (P28223 whole entry): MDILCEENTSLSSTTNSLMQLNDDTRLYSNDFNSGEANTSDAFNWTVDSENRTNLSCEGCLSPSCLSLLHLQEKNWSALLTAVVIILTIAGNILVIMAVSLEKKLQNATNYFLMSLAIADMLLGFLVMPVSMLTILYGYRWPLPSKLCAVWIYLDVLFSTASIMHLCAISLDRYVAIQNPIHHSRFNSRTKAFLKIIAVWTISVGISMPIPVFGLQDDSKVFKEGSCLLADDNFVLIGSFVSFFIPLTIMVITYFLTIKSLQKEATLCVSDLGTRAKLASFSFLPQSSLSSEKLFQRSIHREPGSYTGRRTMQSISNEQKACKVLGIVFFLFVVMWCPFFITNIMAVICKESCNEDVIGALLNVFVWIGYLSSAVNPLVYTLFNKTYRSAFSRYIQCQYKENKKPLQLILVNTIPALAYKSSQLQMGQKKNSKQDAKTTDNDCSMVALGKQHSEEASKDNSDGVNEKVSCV

Consider `O=C1Nc2cc(OCCCCN3CCN(c4cccc5sccc45)CC3)ccc2C2CC12` (single isomer, unassigned) [Example 42-P2], for which the EC50 on D2L receptor (cAMP, forskolin 0.5 μM) was 0.00043 µM. On D2L receptor (positive control dopamine 1 μM), the “D2L Max Act %” value amounted to 32.6%. Further, the concentration for half-maximal inhibition (IC50) on 5-HT2A receptor (calcium flux, antagonism of serotonin) is 0.497 µM. Besides, the “5-HT2A Max Inh %” value at 5-HT2A receptor (positive control ketanserin 10^−7 M) was determined as 97.3%. Also, the EC50 at 5-HT1A receptor (cAMP, forskolin 2.5×10^−7 M) is 0.693 µM. Also, the “5-HT1A Max Act %” value on 5-HT1A receptor (positive control serotonin 10^−6 M) turned out to be 45.5%. Further, a half-maximal response on D2S receptor (cAMP, forskolin 5×10^−7 M) (EC50) required 0.00093 µM. For the same compound, the “D2S Max Act %” value on D2S receptor (positive control dopamine 1×10^−7 M) is recorded as 99.2%. In addition, in data set [1], the “AUC(0-inf)” value was 11.1578 µg·h/mL, the maximum concentration (Cmax) turned out to be 1.2967 µg/mL and the t1/2 came out at 5.8 h.

A word on the EC50: it is the concentration giving half of the maximal effect. Lower therefore signals an effect from little substance. As a reminder, the IC50 is the point on the concentration scale where inhibition reaches its midpoint. For orientation: AUC(0-inf) means the area under the concentration-time curve extrapolated to infinity. What is called Cmax is the peak of the concentration-time curve.
